Among the test systems are Bacillus cereus AS1.126; Escherichia coli AS1.349; Micrococcus luteus A270; Candida albicans MDM8; Proteus mirabilis; Streptococcus pyogenes.
What all share (assay): ≥ marks a high value that may be exact or a test limit, other limits are often not marked, values filed in µg/mL are converted to µM
For assay [1], the system named is Enterococcus faecium CGMCC 1.2334.
In assay [2] the test system is Klebsiella pneumoniae subsp. pneumoniae CGMCC 1.176.
Assay [3] concerns Pseudomonas aeruginosa CGMCC 1.860.
The test system of assay [4] is Enterobacter cloacae CGMCC 1.58.
For assay [5], the system named is Enterococcus faecalis CGMCC 1.595.
Assay [6] concerns Proteus mirabilis CICC 22931.
The test system of assay [7] is Staphylococcus epidermidis CICC 23664.
Assay [8] concerns Staphylococcus aureus AS1.72.
The subject of assay [9] is Pseudomonas aeruginosa ATCC 13388.
Assay [10] has as its system Klebsiella pneumoniae ATCC 10031.
The subject of assay [11] is Salmonella enterica subsp. enterica serovar Typhimurium ATCC 14028.
Assay [12] deals with Escherichia coli ATCC 11219.
The test system of assay [13] is Staphylococcus aureus ATCC 6538.
Assay [14] relates to Staphylococcus aureus ATCC 29213.
Assay [15] has as its system Serratia marcescens ATCC 4112.
Assay [16] has as its system Staphylococcus epidermidis ATCC 12228.
The test system of assay [17] is Bacillus subtilis ATCC 6051.
Assay [18] relates to Escherichia coli NEB5alpha.
Assay [19] has as its system Micrococcus luteus ATCC 10240.
Assay [20] has as its system Staphylococcus epidermidis.
Assay [21] relates to Escherichia coli ATCC 25922.
Assay [22] has as its system Bacillus subtilis ATCC 6633.
The test system of assay [23] is Stenotrophomonas maltophilia ATCC 13637.
In assay [24] the test system is Staphylococcus aureus ATCC 25923.
For assay [25], the system named is Pseudomonas aeruginosa ATCC 27853.
The subject of assay [26] is Candida albicans ATCC 90112.
For assay [27], the system named is Staphylococcus epidermidis ATCC 35984.
Assay [28] has as its system Staphylococcus aureus ATCC 33591.

The structures appear in SMILES notation. In brackets after ≈: the same amount, converted by molar mass. Some results are limits rather than exact numbers.

For the compound `CC[C@H](C)[C@H](N)C(=O)N[C@@H](CCCCN)C(=O)N[C@@H](CCCCN)C(=O)N[C@H](C(=O)N[C@@H](Cc1c[nH]c2ccccc12)C(=O)N[C@@H](CO)C(=O)N[C@@H](CCCCN)C(=O)N[C@H](C(=O)N[C@@H](CCCCN)C(=O)N[C@@H](CCCCN)C(=O)N[C@@H](CC(C)C)C(=O)N[C@@H](Cc1c[nH]c2ccccc12)C(=O)N[C@@H](CCCCN)C(=O)O)[C@@H](C)CC)[C@@H](C)CC` [IKKIWSKIKKLWK], the MIC (commonly the smallest concentration in the dilution series that meets the test's criterion for growth inhibition) in [1] was 10 µM (≈ 17 µg/mL); in assay [2], not below 100 µM; with Bacillus cereus AS1.126 it was 25 µM (≈ 42.5 µg/mL); in [3] it was 5 µM (≈ 8.5 µg/mL); in [4] it was not below 100 µM; against Escherichia coli AS1.349, 3.13 µM (≈ 5.32 µg/mL). The MIC in [5] was 2.5 µM (≈ 4.25 µg/mL); in assay [6], not below 100 µM; in [7] it was 5 µM (≈ 8.5 µg/mL); in [8] it was 2.5 µM (≈ 4.25 µg/mL).

For `CC[C@H](C)[C@H](NC(=O)CN)C(=O)N[C@@H](Cc1cnc[nH]1)C(=O)N[C@@H](CC(=O)O)C(=O)N[C@H](C(=O)N[C@@H](CC(C)C)C(=O)N[C@@H](CCCCN)C(=O)N[C@@H](Cc1ccc(O)cc1)C(=O)NCC(=O)N[C@@H](CCCCN)C(=O)N1CCC[C@H]1C(=O)N[C@@H](C)C(N)=O)[C@@H](C)CC` [GIHDILKYGKPA], the MIC in [9] is not below 50 µM; in assay [10] it was 30 µM (≈ 39.3 µg/mL); in assay [11], more than 50 µM; in assay [12], not below 50 µM; in [13] it was more than 50 µM.

`CC(C)C[C@H](NC(=O)[C@H](CO)NC(=O)[C@H](Cc1ccccc1)NC(=O)[C@@H]1CCCN1C(=O)[C@@H](N)CCC(N)=O)C(=O)N[C@@H](CCC(=O)O)C(=O)N[C@@H](CCCN=C(N)N)C(=O)N[C@@H](Cc1c[nH]c2ccccc12)C(=O)O` [QPFSLERW]: the minimum inhibitory concentration (MIC) in the assay with Micrococcus luteus A270 was not below 94.5 µM; in assay [14], 189 µM (≈ 201 µg/mL); in assay [15], not below 47.2 µM; in [16] it was 189 µM (≈ 201 µg/mL); with Candida albicans MDM8, not below 189 µM.

With `CC[C@H](C)[C@H](NC(=O)[C@H](CO)NC(=O)[C@H](CCC(=O)O)NC(=O)[C@H](CCCCN)NC(=O)[C@@H](NC(=O)[C@@H](N)CCCCN)C(C)C)C(=O)N[C@H](C(=O)N[C@@H](CCCN=C(N)N)C(=O)N[C@@H](CCCCN)C(=O)N[C@@H](CC(C)C)C(=O)O)[C@@H](C)CC` [KVKESIIRKL], the minimum inhibitory concentration (MIC) in [17] was not below 500 µM; in assay [18], not below 1000 µM.

Turning to `CC[C@H](C)[C@H](NC(=O)[C@@H](N)Cc1cnc[nH]1)C(=O)N[C@@H](CCC(N)=O)C(=O)N[C@@H](CCCCN)C(=O)N[C@@H](CCC(=O)O)C(=O)N[C@@H](CC(=O)O)C(=O)N[C@H](C(=O)N1CCC[C@H]1C(=O)N[C@@H](CO)C(=O)N[C@@H](CCC(=O)O)C(=O)N[C@@H](CCCN=C(N)N)C(=O)N[C@@H](Cc1ccc(O)cc1)C(=O)N[C@@H](CC(C)C)C(=O)NCC(=O)N[C@@H](Cc1ccc(O)cc1)C(=O)N[C@@H](CC(C)C)C(=O)N[C@@H](CCC(=O)O)C(=O)N[C@@H](CCC(N)=O)C(=O)N[C@@H](CC(C)C)C(=O)N[C@@H](CC(C)C)C(=O)N[C@@H](CCCN=C(N)N)C(=O)N[C@@H](CC(C)C)C(=O)N[C@@H](CCCCN)C(=O)N[C@@H](CCCCN)C(=O)N[C@@H](Cc1ccc(O)cc1)C(=O)N[C@@H](CCCCN)C(=O)O)C(C)C` [HIQKEDVPSERYLGYLEQLLRLKKYK], the minimum inhibitory concentration (MIC) was not below 42.3 µM in assay [17] and not below 169 µM in assay [18].

Take `CC[C@H](C)[C@H](N)C(=O)N[C@@H](CCCCN)C(=O)N[C@@H](CCCCN)C(=O)N[C@H](C(=O)N[C@@H](CC(C)C)C(=O)N[C@@H](CO)C(=O)N[C@@H](CCCCN)C(=O)N[C@H](C(=O)N[C@@H](CCCCN)C(=O)N[C@@H](CCCCN)C(=O)N[C@@H](Cc1c[nH]c2ccccc12)C(=O)N[C@@H](Cc1c[nH]c2ccccc12)C(=O)N[C@@H](CCCCN)C(=O)O)[C@@H](C)CC)[C@@H](C)CC` [IKKILSKIKKWWK]: the minimal inhibitory concentration (MIC) in assay [1] was 12.5 µM (≈ 21.2 µg/mL); in assay [2], not below 100 µM; with Bacillus cereus AS1.126 it was 20 µM (≈ 34 µg/mL); in assay [3] it was 10 µM (≈ 17 µg/mL); in [4], not below 100 µM; with Escherichia coli AS1.349, 10 µM (≈ 17 µg/mL). The MIC in [5] is 10 µM (≈ 17 µg/mL); in assay [6] it was not below 100 µM; in assay [7] it was 6.25 µM (≈ 10.6 µg/mL); in assay [8] it was 12.5 µM (≈ 21.2 µg/mL).

`CC[C@H](C)[C@H](NC(=O)CN)C(=O)N[C@@H](Cc1cnc[nH]1)C(=O)N[C@@H](CC(=O)O)C(=O)N[C@H](C(=O)N[C@@H](CC(C)C)C(=O)N[C@@H](C)C(=O)N[C@@H](Cc1ccc(O)cc1)C(=O)NCC(=O)N[C@@H](CCCCN)C(=O)N1CCC[C@H]1C(=O)N[C@@H](CO)C(N)=O)[C@@H](C)CC` [GIHDILAYGKPS]: the MIC in assay [9] is 15 µM (≈ 19 µg/mL); in assay [10] it was 20 µM (≈ 25.4 µg/mL); in assay [11] it was 15 µM (≈ 19 µg/mL); in [12], 15 µM (≈ 19 µg/mL); in assay [13], 10 µM (≈ 12.7 µg/mL).

`CC[C@H](C)[C@H](NC(=O)[C@H](CC(C)C)NC(=O)CNC(=O)[C@H](CCCCN)NC(=O)[C@H](CC(C)C)NC(=O)[C@H](CC(N)=O)NC(=O)[C@@H](N)CC(C)C)C(=O)N[C@@H](CCCCN)C(=O)N[C@@H](CCCCN)C(=O)N[C@H](C(=O)N[C@@H](C)C(=O)N[C@@H](CO)C(=O)N[C@@H](CC(C)C)C(=O)N[C@@H](CC(C)C)C(=O)N[C@@H](CC(N)=O)C(=O)O)C(C)C` [LNLKGLIKKVASLLN]: the MIC in assay [19] worked out at 15 µM (≈ 24.4 µg/mL); in assay [20], 30 µM (≈ 48.7 µg/mL); in [21], 30 µM (≈ 48.7 µg/mL); in [22], 7.5 µM (≈ 12.2 µg/mL); in assay [23], 15 µM (≈ 24.4 µg/mL); in [24], 60 µM (≈ 97.4 µg/mL). In addition, the minimal inhibitory concentration (MIC) against Proteus mirabilis is not below 60 µM; in [25] it was 30 µM (≈ 48.7 µg/mL); in the assay with Streptococcus pyogenes, 15 µM (≈ 24.4 µg/mL); in assay [26], 7.5 µM (≈ 12.2 µg/mL).

`CC[C@H](C)[C@H](NC(=O)[C@H](CCCCN)NC(=O)[C@@H](NC(=O)[C@H](Cc1ccccc1)NC(=O)[C@H](C)NC(=O)[C@H](CCCCN)NC(=O)CNC(=O)[C@H](Cc1ccccc1)NC(=O)[C@@H](N)CCCCN)C(C)C)C(=O)N[C@@H](CC(C)C)C(=O)N[C@@H](CCCCN)C(=O)N[C@@H](CCCCN)C(N)=O` [KFGKAFVKILKK]: the minimal inhibitory concentration (MIC) in assay [27] was not below 64.3 µM; in assay [24], 257 µM (≈ 362 µg/mL); in assay [28], not below 257 µM; in assay [25] it was 16.1 µM (≈ 22.6 µg/mL).

For the origin of these results see DBAASP.
